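Step 1: Grow cells in 96-well plates. Step 2: Expose to compound for 48 hours at 5 concentrations. Step 3: Interpolate endpoints linearly; if unreached, use highest concentration. The concentration for 50% growth inhibition is given as GI50. TGI denotes the concentration required for complete inhibition of growth.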
Experiments:
Assay in all cases: growth of human tumour cells (NCI), 48 h
[1] = tested on: 786-0 renal
[2] = tested on: A498 renal
[3] = tested on: A549 NSCLC
[4] = tested on: ACHN renal
[5] = tested on: BT-549 breast
[6] = tested on: CAKI-1 renal
[7] = tested on: CCRF-CEM leukemia
[8] = tested on: COLO 205 colon
[9] = tested on: DU-145 prostate
[10] = tested on: EKVX NSCLC
[11] = tested on: HCC-2998 colon
[12] = tested on: HCT-116 colon
[13] = tested on: HCT-15 colon
[14] = tested on: HL-60(TB) leukemia
[15] = tested on: HOP-62 NSCLC
[16] = tested on: HOP-92 NSCLC
[17] = tested on: HS 578T breast
[18] = tested on: HT29 colon
[19] = tested on: IGROV1 ovarian
[20] = tested on: K-562 leukemia
[21] = tested on: KM12 colon
[22] = tested on: LOX IMVI melanoma
[23] = tested on: M14 melanoma
[24] = tested on: MALME-3M melanoma
[25] = tested on: MCF7 breast
[26] = tested on: MDA-MB-231 breast
[27] = tested on: MDA-MB-435
[28] = tested on: MOLT-4 leukemia
[29] = tested on: NCI-H226 lung
[30] = tested on: NCI-H460 lung
[31] = tested on: NCI-H522 lung
[32] = tested on: NCI/ADR-RES ovarian
[33] = tested on: OVCAR-3 ovarian
[34] = tested on: OVCAR-4 ovarian
[35] = tested on: OVCAR-5 ovarian
[36] = tested on: OVCAR-8 ovarian
[37] = tested on: PC-3 prostate
[38] = tested on: RPMI-8226 leukemia
[39] = tested on: RXF 393 renal
[40] = tested on: SF-268 CNS
[41] = tested on: SF-295 CNS
[42] = tested on: SF-539 CNS
[43] = tested on: SK-MEL-2 melanoma
[44] = tested on: SK-MEL-28 melanoma
[45] = tested on: SK-MEL-5 melanoma
[46] = tested on: SK-OV-3 ovarian
[47] = tested on: SN12C renal
[48] = tested on: SNB-19 CNS
[49] = tested on: SNB-75 CNS
[50] = tested on: SR leukemia
[51] = tested on: SW-620 colon
[52] = tested on: T-47D breast
[53] = tested on: TK-10 renal
[54] = tested on: U251 CNS
[55] = tested on: UACC-257 melanoma
[56] = tested on: UACC-62 melanoma
[57] = tested on: UO-31 renal

CCNC(=O)N1CCc2cc(OC)c(OCCc3ccc(OC)nc3)cc2C1c1ccc(C)cc1C (centres undefined)
GI50 [1]: 687 nM | TGI [1]: > 100000 nM | GI50 [2]: 1390 nM | TGI [2]: 14300 nM | GI50 [3]: 984 nM | TGI [3]: > 100000 nM | GI50 [4]: 662 nM | TGI [4]: 91100 nM | GI50 [5]: 1550 nM | TGI [5]: 7450 nM | GI50 [6]: 611 nM | TGI [6]: > 100000 nM | GI50 [7]: 519 nM | TGI [7]: 55000 nM | GI50 [8]: 792 nM | TGI [8]: 4170 nM | GI50 [9]: 858 nM | TGI [9]: 24000 nM | GI50 [10]: 4030 nM | TGI [10]: > 100000 nM | GI50 [11]: 1560 nM | TGI [11]: 17800 nM | GI50 [12]: 299 nM | TGI [12]: 20700 nM | GI50 [13]: 156 nM | TGI [13]: > 60200 nM | GI50 [14]: 651 nM | TGI [14]: 3820 nM | GI50 [15]: 1350 nM | TGI [15]: > 37500 nM | GI50 [16]: 4520 nM | TGI [16]: 27400 nM | GI50 [17]: 1530 nM | TGI [17]: 10600 nM | GI50 [18]: 573 nM | TGI [18]: 10500 nM | GI50 [19]: 743 nM | TGI [19]: > 100000 nM | GI50 [20]: 259 nM | TGI [20]: > 100000 nM | GI50 [21]: 634 nM | TGI [21]: > 40400 nM | GI50 [22]: 308 nM | TGI [22]: 5410 nM | GI50 [23]: 722 nM | TGI [23]: 19300 nM | GI50 [24]: 1350 nM | TGI [24]: 50200 nM | GI50 [25]: 443 nM | TGI [25]: > 100000 nM | GI50 [26]: 1140 nM | TGI [26]: 30200 nM | GI50 [27]: 370 nM | TGI [27]: 5890 nM | GI50 [28]: 416 nM | TGI [28]: 35500 nM | GI50 [29]: 1730 nM | TGI [29]: 11400 nM | GI50 [30]: 241 nM | TGI [30]: 6360 nM | GI50 [31]: 523 nM | TGI [31]: 2720 nM | GI50 [32]: 659 nM | TGI [32]: 38800 nM | GI50 [33]: 1340 nM | TGI [33]: 24300 nM | GI50 [34]: 3300 nM | TGI [34]: > 100000 nM | GI50 [35]: 2020 nM | TGI [35]: > 100000 nM | GI50 [36]: 675 nM | TGI [36]: > 43100 nM | GI50 [37]: 719 nM | TGI [37]: > 71800 nM | GI50 [38]: 531 nM | TGI [38]: 3580 nM | GI50 [39]: 1070 nM | TGI [39]: 15000 nM | GI50 [40]: 927 nM | TGI [40]: 50100 nM | GI50 [41]: 574 nM | TGI [41]: 8800 nM | GI50 [42]: 501 nM | TGI [42]: 5230 nM | GI50 [43]: 3330 nM | TGI [43]: 16400 nM | GI50 [44]: 873 nM | TGI [44]: 32100 nM | GI50 [45]: 839 nM | TGI [45]: 2710 nM | GI50 [46]: 2670 nM | TGI [46]: > 100000 nM | GI50 [47]: 1100 nM | TGI [47]: 15400 nM | GI50 [48]: 837 nM | TGI [48]: > 100000 nM | GI50 [49]: 667 nM | TGI [49]: > 23500 nM | GI50 [50]: 207 nM | TGI [50]: 2960 nM | GI50 [51]: 466 nM | TGI [51]: > 100000 nM | GI50 [52]: 2680 nM | TGI [52]: 64500 nM | GI50 [53]: 5000 nM | TGI [53]: > 100000 nM | GI50 [54]: 636 nM | TGI [54]: 17500 nM | GI50 [55]: 2290 nM | TGI [55]: 50500 nM | GI50 [56]: 430 nM | TGI [56]: 12200 nM | GI50 [57]: 929 nM | TGI [57]: > 100000 nM
